Laboratory results from ChEMBL document CHEMBL5252635, “The Mycobacterium tuberculosis mycothiol S-transferase is divalent metal-dependent for mycothiol binding and transfer” (2023).

Experiments:
[1] = biological target: T1, Conserved protein (Mycobacterium tuberculosis) (UniProt O53728)
T1 sequence (whole entry): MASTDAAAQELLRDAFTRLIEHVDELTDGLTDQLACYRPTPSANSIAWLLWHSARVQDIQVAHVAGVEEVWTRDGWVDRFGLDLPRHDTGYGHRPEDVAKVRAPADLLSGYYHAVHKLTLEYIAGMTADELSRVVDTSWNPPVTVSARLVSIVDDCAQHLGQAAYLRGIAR
Description: Binding affinity to Mycobacterium tuberculosis MST assessed as change in melting temperature in presence of nickle by differential scanning fluorimetry method

[2] = biological target: T1, Conserved protein (Mycobacterium tuberculosis); remark: listed apart in the source
Description: Binding affinity to Mycobacterium tuberculosis MST assessed as melting temperature in presence of zinc by differential scanning fluorimetry method

[3] = biological target: T1, Conserved protein (Mycobacterium tuberculosis); remark: listed apart in the source
Description: Binding affinity to Mycobacterium tuberculosis MST assessed as change in melting temperature in presence of cobalt by differential scanning fluorimetry method

[4] = biological target: T1, Conserved protein (Mycobacterium tuberculosis); remark: listed apart in the source
Description: Binding affinity to Mycobacterium tuberculosis MST assessed as change in melting temperature in presence of zinc by differential scanning fluorimetry method

[5] = biological target: T1, Conserved protein (Mycobacterium tuberculosis); remark: listed apart in the source
Description: Binding affinity to Mycobacterium tuberculosis MST assessed as change in melting temperature in presence of ferrous by differential scanning fluorimetry method

[6] = biological target: T1, Conserved protein (Mycobacterium tuberculosis); remark: listed apart in the source
Description: Binding affinity to Mycobacterium tuberculosis MST assessed as melting temperature in presence of cobalt by differential scanning fluorimetry method

[7] = biological target: T1, Conserved protein (Mycobacterium tuberculosis); remark: listed apart in the source
Description: Binding affinity to Mycobacterium tuberculosis MST assessed as melting temperature in presence of ferrous by differential scanning fluorimetry method

[8] = biological target: T1, Conserved protein (Mycobacterium tuberculosis); remark: listed apart in the source
Description: Binding affinity to Mycobacterium tuberculosis MST assessed as melting temperature in presence of nickle by differential scanning fluorimetry method

[9] = biological target: T1, Conserved protein (Mycobacterium tuberculosis); remark: listed apart in the source
Description: Binding affinity to Mycobacterium tuberculosis MST assessed as melting temperature by differential scanning fluorimetry method

Compound: CC(=O)N[C@@H](CS)C(=O)N[C@H]1[C@@H](O[C@@H]2[C@H](O)[C@H](O)[C@@H](O)[C@H](O)[C@H]2O)O[C@H](CO)[C@@H](O)[C@@H]1O
- ΔTm [1]: 9.9 °C
- Tm [2]: 71.9 °C
- ΔTm [3]: 6.1 °C
- ΔTm [4]: 12.9 °C
- ΔTm [5]: 3.2 °C
- Tm [6]: 65.1 °C
- Tm [7]: 62.2 °C
- Tm [8]: 68.9 °C
- Tm [9]: 59 °C
